# Laboratory results published in patent publication US9302999B2, “Substituted triazoles as herbicides” (E. I. DU PONT DE NEMOURS AND COMPANY, priority 2012, dated 2016).
# Read-outs that look alike come from different tables or passages of the source.
# What was measured:
# Type in all cases: in vivo
# rice (Oryza sativa) = test: Test C flooded paddy test: rice; conditions: scale 0 to 100 (0 no effect, 100 complete control); for plant injury at 62 g/ha / plant injury at 125 g/ha / plant injury at 250 g/ha / plant injury at 31 g/ha: Oryza sativa, read-out: Plant response rating, Rice
# Outline: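 Visual ratings from 0 (no effect) to 100 (complete control), made against untreated controls 13 to 15 days after treatment, express plant response. Compounds went directly into paddy water over 2-leaf stage plants in pots flooded to 3 cm.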
# [1] = system: barley (winter barley, Hordeum vulgare); test: Test C postemergence: barley
# Source text: (§1) At the same time, plants selected from these crop and weed species and also barley (winter barley, Hordeum vulgare), canarygrass (Phalaris minor), chickweed (common chickweed, Stellaria media) windgrass (Apera spica-venti) and deadnettle (henbit deadnettle, Lamium amplexicaule) were planted in pots containing Redi-Earth® planting medium (Scotts Company, 14111 Scottslawn Road, Marysville, Ohio 43041) comprising spaghnum peat moss, vermiculite, wetting agent and starter nutrients and treated with postemergence applications of test chemicals formulated in the same manner. Plants ranged in height from 2 to 18 cm (1- to 4-leaf stage) for postemergence treatments.
# (§2) Treated plants and controls were maintained in a greenhouse for 13 to 15 days, after which time all species were compared to controls and visually evaluated. Plant response ratings, summarized in Table C, are based on a scale of 0 to 100 where 0 is no effect and 100 is complete control. A dash (-) response means no test result.
# [2] = system: windgrass (Apera spica-venti); test: Test C postemergence: windgrass
# Source text: as §1, §2
# [3] = system: barley, spring (spring barley, Hordeum vulgare); test: Test D pre-/postemergence: barley, spring
# Source text: (§3) Seeds of plant species selected from bluegrass (annual bluegrass, Poa annua), blackgrass (Alopecurus myosuroides), canarygrass (Phalaris minor), chickweed (common chickweed, Stellaria media), galium (catchweed bedstraw, Galium aparine), bromegrass, downy (downy bromegrass, Bromus tectorum), field poppy (Papaver rhoeas), field violet (Viola arvensis), foxtail, green (green foxtail, Setaria viridis), deadnettle (henbit deadnettle, Lamium amplexicaule), ryegrass, Italian (Italian ryegrass, Lolium multiflorum), kochia (Kochia scoparia), lambsquarters (Chenopodium album), oilseed rape (Brassica napus), pigweed (Amaranthus retroflexus), Russian thistle (Salsola iberica), chamomile (scentless chamomile, Matricaria inodora), speedwell (bird's-eye speedwell, Veronica persica), barley, spring (spring barley, Hordeum vulgare), wheat, spring (spring wheat, Triticum aestivum), buckwheat, wild (wild buckwheat, Polygonum convolvulus), mustard, wild (wild mustard, Sinapis arvensis), oat, wild (wild oat, Avena fatua), radish, wild (wild radish, Raphanus raphanistrum), windgrass (Apera spica-venti), barley, winter (winter barley, Hordeum vulgare), and wheat, winter (winter wheat, Triticum aestivum) were planted into a silt loam soil and treated preemergence with test chemicals formulated in a non-phytotoxic solvent mixture which included a surfactant. At the same time, these same crop and weed species were planted in pots containing the planting medium comprising spaghnum peat moss, vermiculite, wetting agent and starter nutrients and treated with postemergence applications of the test chemicals formulated in the same manner. Plants ranged in height from 2 to 18 cm (1- to 4-leaf stage).
# as §2, with “controlled growth environment” for “greenhouse”, “14” for “13”, “21 days” for “15 days,”, “D,” for “C,”
# [4] = system: wheat, winter (winter wheat, Triticum aestivum); test: Test D pre-/postemergence: wheat, winter
# Source text: as §3
# as §2, with “controlled growth environment” for “greenhouse”, “14” for “13”, “21 days” for “15 days,”, “D,” for “C,”
# [5] = system: barnyardgrass (Echinochloa crus-galli); test: Test B flooded paddy: barnyardgrass; conditions: Flood, applied to paddy water at 2-leaf stage, visually evaluated after 13 to 15 days
# Outline: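 Response scored visually, 0–100 relative to controls, 13–15 days after the compound was applied into paddy water; plants were at the 2-leaf stage in pots kept flooded to 3 cm.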
# [6] = Flood (flooded paddy test), 125 g ai/ha, visual rating after 13 to 15 days
# [7] = Flood (flooded paddy test), 250 g ai/ha, visual rating after 13 to 15 days
# [8] = 16 g ai/ha, scale 0 to 100, 0 no effect, 100 complete control
# [9] = 31 g ai/ha, scale 0 to 100 (0 no effect, 100 complete control)
# [10] = 62 g ai/ha, scale 0 to 100 (0 no effect, 100 complete control)
# [11] = 125 g ai/ha, scale 0 to 100, 0 no effect, 100 complete control
# [12] = Postemergence, 31 g ai/ha, scale 0 to 100 (0 no effect, 100 complete control)
# [13] = Postemergence, 62 g ai/ha, scale 0 to 100 (0 no effect, 100 complete control)
# [14] = Postemergence, 125 g ai/ha, scale 0 to 100, 0 no effect, 100 complete control
# [15] = Postemergence, 250 g ai/ha, scale 0 to 100 (0 no effect, 100 complete control)
# [16] = Postemergence, 16 g ai/ha, scale 0 to 100
# [17] = Preemergence, 16 g ai/ha, scale 0 to 100 (0 no effect, 100 complete control)
# [18] = Preemergence, 31 g ai/ha, scale 0 to 100 (0 no effect, 100 complete control)
# [19] = Preemergence, 62 g ai/ha, scale 0 to 100
# [20] = Preemergence, 125 g ai/ha, scale 0 to 100
# [21] = Preemergence, 250 g ai/ha, scale 0 to 100
structure (smiles),measurement,setting,value
"COc1nn(-c2ccc(C(F)(F)F)cc2)nc1Cn1ccc(C(F)(F)F)n1 [Compound 17, 4-methoxy-2-[4-(trifluoromethyl)phenyl]-5-[[3-(trifluoromethyl)-1H-pyrazol-1-yl]methyl]-2H-1,2,3-triazole]",plant injury at 62 g/ha,"rice (Oryza sativa); Flood (flooded paddy test), 62 g ai/ha, visual rating after 13 to 15 days",15%
same,plant injury at 125 g/ha,rice (Oryza sativa); [6],35%
same,plant injury at 250 g/ha,rice (Oryza sativa); [7],45%
same,plant injury at 31 g/ha,"rice (Oryza sativa); Flood, 31 g ai/ha",10%
Cc1nn(-c2ccc(C(F)(F)F)cc2)nc1Cc1cccc(C(F)(F)F)c1 [Compound 124],"Plant response rating, Barley",[1]; [8],5
same,"Plant response rating, Barley",[1]; [9],15
same,"Plant response rating, Barley",[1]; [10],30
same,"Plant response rating, Barley",[1]; [11],30
same,"Plant response rating, Windgrass",[2]; [8],50
same,"Plant response rating, Windgrass",[2]; [9],80
same,"Plant response rating, Windgrass",[2]; [10],95
same,"Plant response rating, Windgrass",[2]; [11],98
same,"Plant response rating, Rice",rice (Oryza sativa); [6],15
same,"Plant response rating, Rice",rice (Oryza sativa); [7],20
same,"Plant response rating, Rice","rice (Oryza sativa); Flood, 31 g ai/ha",0
same,"Plant response rating, Rice","rice (Oryza sativa); Flood, 62 g ai/ha",0
"CCc1nn(-c2ccc(C(F)(F)F)cc2)nc1Oc1cccc(OC(F)(F)F)c1 [Compound 125, 4-ethyl-5-[3-(trifluoromethoxy)phenoxy]-2-[4-(trifluoromethyl)phenyl]-2H-1,2,3-triazole]",plant injury at 125 g/ha,rice (Oryza sativa); [6],0%
same,plant injury at 250 g/ha,rice (Oryza sativa); [7],10%
same,plant injury at 31 g/ha,"rice (Oryza sativa); Flood, 31 g ai/ha",0%
same,plant injury at 62 g/ha,"rice (Oryza sativa); Flood, 62 g ai/ha",0%
"Cc1nn(-c2ccc(F)cc2)nc1Oc1ccnc(C(F)(F)F)c1 [Compound 129, 4-[[2-(4-fluorophenyl)-5-methyl-2H-1,2,3-triazol-4-yl]oxy]-2-(trifluoromethyl)pyridine]","Plant response rating, Barley",[1]; [9],30
same,"Plant response rating, Barley",[1]; [10],35
same,"Plant response rating, Barley",[1]; [11],45
same,"Plant response rating, Barley","[1]; 250 g ai/ha, scale 0 to 100",50
same,"Plant response rating, Windgrass",[2]; [9],60
same,"Plant response rating, Windgrass",[2]; [10],80
same,"Plant response rating, Windgrass",[2]; [11],85
same,"Plant response rating, Windgrass","[2]; 250 g ai/ha, scale 0 to 100",100
same,plant injury at 125 g/ha,rice (Oryza sativa); [6],40%
same,plant injury at 250 g/ha,rice (Oryza sativa); [7],50%
same,plant injury at 31 g/ha,"rice (Oryza sativa); Flood, 31 g ai/ha",20%
same,plant injury at 62 g/ha,"rice (Oryza sativa); Flood, 62 g ai/ha",30%
same,"Plant response rating: Barley, Spring",[3]; [12],5
same,"Plant response rating: Barley, Spring",[3]; [13],5
same,"Plant response rating: Barley, Spring",[3]; [14],10
same,"Plant response rating: Barley, Spring",[3]; [15],10
same,"Plant response rating, Barley, Spring",[3]; [16],5
same,"Plant response rating, Barley, Spring",[3]; [17],0
same,"Plant response rating, Barley, Spring",[3]; [18],0
same,"Plant response rating, Barley, Spring",[3]; [19],5
same,"Plant response rating, Barley, Spring",[3]; [20],15
same,"Plant response rating, Barley, Spring",[3]; [21],20
same,"Plant response rating: Wheat, Winter",[4]; [12],5
same,"Plant response rating: Wheat, Winter",[4]; [13],10
same,"Plant response rating: Wheat, Winter",[4]; [14],20
same,"Plant response rating: Wheat, Winter",[4]; [15],20
same,"Plant response rating, Wheat, Winter",[4]; [16],5
same,"Plant response rating, Wheat, Winter",[4]; [17],0
same,"Plant response rating, Wheat, Winter",[4]; [18],0
same,"Plant response rating, Wheat, Winter",[4]; [19],0
same,"Plant response rating, Wheat, Winter",[4]; [20],5
same,"Plant response rating, Wheat, Winter",[4]; [21],10
Cc1nn(-c2ccnc(C(F)(F)F)c2)nc1Cc1ccnc(C(F)(F)F)c1 [Compound 137],"Plant response rating, Barnyardgrass (0 to 100 scale, 0 is no effect, 100 is complete control)",[5]; 250 g ai/ha,45
same,"Plant response rating, Barley",[1]; [9],10
same,"Plant response rating, Barley",[1]; [10],10
same,"Plant response rating, Barley",[1]; [11],30
same,"Plant response rating, Barley","[1]; 250 g ai/ha, scale 0 to 100",35
same,"Plant response rating, Windgrass",[2]; [9],40
same,"Plant response rating, Windgrass",[2]; [10],50
same,"Plant response rating, Windgrass",[2]; [11],70
same,"Plant response rating, Windgrass","[2]; 250 g ai/ha, scale 0 to 100",90
same,"Plant response rating: Barley, Spring",[3]; [12],15
same,"Plant response rating: Barley, Spring",[3]; [13],25
same,"Plant response rating: Barley, Spring",[3]; [14],30
same,"Plant response rating: Barley, Spring",[3]; [15],40
same,"Plant response rating, Barley, Spring",[3]; [16],10
same,"Plant response rating: Wheat, Winter",[4]; [12],5
same,"Plant response rating: Wheat, Winter",[4]; [13],10
same,"Plant response rating: Wheat, Winter",[4]; [14],15
same,"Plant response rating: Wheat, Winter",[4]; [15],20
same,"Plant response rating, Wheat, Winter",[4]; [16],5
CCCc1nn(-c2ccc(F)cc2)nc1Cc1ccnc(C(F)(F)F)c1 [Compound 153],"Plant response rating, Barnyardgrass (0 to 100 scale, 0 is no effect, 100 is complete control)",[5]; 250 g ai/ha,80
Cc1nn(-c2ccc(C(F)(F)F)c(F)c2)nc1Cc1ccnc(C(F)(F)F)c1 [Compound 162],"Plant response rating, Barnyardgrass (0 to 100 scale, 0 is no effect, 100 is complete control)",[5]; 125 g ai/ha,70
CCc1nn(-c2ccc(F)cc2)nc1Oc1ccnc(C(F)(F)F)c1 [Compound 166],"Plant response rating, Barnyardgrass (0 to 100 scale, 0 is no effect, 100 is complete control)",[5]; 125 g ai/ha,70
CCCc1nn(-c2ccc(C(F)(F)F)c(F)c2)nc1Oc1ccnc(C(F)(F)F)c1 [Compound 185],"Plant response rating, Barnyardgrass (0 to 100 scale, 0 is no effect, 100 is complete control)",[5]; 250 g ai/ha,90
CCOc1nn(-c2ccc(Br)cc2)nc1Cc1ccnc(C(F)(F)F)c1 [Compound 189],"Plant response rating, Barnyardgrass (0 to 100 scale, 0 is no effect, 100 is complete control)",[5]; 125 g ai/ha,0
